Laboratory results: patent publication US12508280B2, “Formulations for improving gut health” (DSM IP ASSETS B.V., priority 2018, dated 2025)

How the values were obtained:
cecal microbiota = assay: Broiler feeding trial, cecal microbiota 16S rRNA sequencing; type: in vivo, chickens
Excerpt: (§1) Each group was sampled three times (i.e., S1=14 days, S2=28 days, S3=38/42 days) in specific days corresponding to when the feed will be changed along the feeding program.
(§2) During each sampling (i.e., S1, S2 and S3) a total of 40 birds/group were humanely euthanized and 9 litter samples will be collected (i.e., 3 samples/group).
DNA extraction from cecal samples: The commercial kit DNeasy PowerSoil kit (Qiagen, Hilden, Germany) has been chosen and applied to all available cecal samples following the manufacturer instructions. DNA yield was measured using a Nanodrop instrument.
(§3) 16S rRNA gene PCR amplification and sequencing. The V3-V4 hypervariable region of the 16S rRNA gene was PCR-amplified using 341F and 785R primers with Illumina overhang adaptors sequences. Amplicons purification was performed by using AMPure XP Beads magnetic beads (Beckman Coulter, Brea, CA). For the indexed library preparation, the Nextera XT DNA Library Prep Kit (Illumina, San Diego, CA) was used. A further magnetic beads purification step was performed and libraries quantified using the Qubit 3.0 fluorimeter (Invitrogen), then pooled at 4 nM. The library pool was denatured with NaOH 0.2 N and diluted to […]. Sequencing was performed on Illumina MiSeq platform using a 2×250 bp paired end protocol, according to the manufacturer's instructions (Illumina).
Bioinformatics and statistics. Raw sequences were processed using a pipeline combining PANDAseq (Masella et al, 2012) and QIIME2 (Caporaso et al, 201 O; qiime2.org). After chimera sequences removal, high-quality reads were filtered and binned into high-resolution operational taxonomic units (OTUs) according to the taxonomic threshold of 99% through an open-reference strategy performed with dada2 (Callahan et al, 2016). Taxonomy was assigned using the vsearch classifier (Rognes et al, 2016) and SILVA database as reference (Quast et al, 2013). Alpha diversity was measured using Faith PD index and number of observed OTUs. Statistics was performed using R Studio software version 1.0.136 running on R software 3.1.3 (r-project.org/), implemented with the libraries vegan, made4, PMCMR. Beta diversity was estimated by computing weighted UniFrac distances and visualized by Principal Coordinates Analyses (PCoAs). The significance of separation among groups of samples was tested by permutational multivariate analysis of variance using the function adonis of the vegan package. Bacterial phylogenetic groups (genus, family, phylum) showing a minimum relative abundance of 0.5% in at least the 1% of the samples were kept for further analysis and graphical visualization. Compositional differences among group of samples were tested using Kruskal-Wallis test. P values were corrected for multiple comparisons using the Benjamini-Hochberg method.

litter microbiota = assay: Broiler feeding trial, litter microbiota; type: in vivo, chickens; details: groups A, B, C
Excerpt: as §1, §2
as §3, with “Sequencing was performed on Illumina MiSeq platform using a 2×250 bp paired end protocol, according to the manufacturer's instructions (Illumina).” left out
Bioinformatics and statistics. […] After chimera sequences removal, high-quality reads were filtered and binned into high-resolution operational taxonomic units (OTUs) according to the taxonomic threshold of 99% through an open-reference strategy performed with dada2 (Callahan et al, 2016). […] Alpha diversity was measured using Faith PD index and number of observed OTUs. […]

Bifidobacterium = assay: Microbiome composition by shotgun sequencing: Bifidobacterium (first set); type: cell-based, human; details: after 24 h fermentation, vs corresponding control

Molecule | abundance of family Bacteroidaceae and genus Bacteroides in cecum (cecal microbiota; Group B (50 mg/kg riboflavin), all available time points) | cecal microbiota structure (beta diversity, UniFrac PCoA) (cecal microbiota; Group B (control diet+50 mg/kg riboflavin) vs groups A and C) | abundance of Bifidobacteriaceae in cecum (cecal microbiota; Group C (100 mg/kg riboflavin), from T1 to T3, significant at T2 and T3) | cecal species richness (observed OTUs) (cecal microbiota; Group C (control diet+100 mg/kg riboflavin), time points T2 and T3, P<0.0001) | [Eubacterium] coprostanoligenes group abundance in cecum (cecal microbiota; Groups B and C vs control group A, T2) | litter microbiome bacterial composition and species richness/diversity (litter microbiota) | Bifidobacterium relative abundance (Bifidobacterium; 0.2× dose) | Bifidobacterium relative abundance (Bifidobacterium; 1× dose) | Bifidobacterium relative abundance (Bifidobacterium; 5× dose)
Cc1cc2nc3c(=O)[nH]c(=O)nc-3n(C[C@H](O)[C@H](O)[C@H](O)CO)c2cc1C [Vitamin B2, riboflavin] | significantly higher abundances | different longitudinal trajectory | progressive increase | significant increase in species richness | higher abundance | no significant differences |  |  | 
Vitamin E |  |  |  |  |  |  | increase Bifidobacterium relative abundance | increase Bifidobacterium relative abundance | increase Bifidobacterium relative abundance
